US8778888B2, “Cystine knot peptides binding to alpha IIb beta 3 integrins and methods of use” (The Board of Trustees of the Leland Stanford Junior …, priority 2009, dated 2014)

Assays:
[1] = molecular target: T1, αIIbβ3 integrin (K562-αIIbβ3 cells) (Homo sapiens, UniProt P05106+P08514); assay: Cell binding assay on K562-αIIbβ3 cells (flow cytometry); details: K562-αIIbβ3 versus K562-αvβ3 cells
T1 construct: expressed in transfected cells; host or cells: K562 leukemia cells (from S. Blystone)
Protocol: K562 cells stably expressing αIIbβ3, αvβ3, or αvβ5 were obtained from S. Blystone and maintained in IMDM media (Gibco) containing 10% FBS and 1.0 mg/mL geneticin. For binding assays, 10^5 cells were suspended in IBB, and varying concentrations of AgRP peptides were added. After 3 hour incubation at 4° C., the cells were centrifuged, aspirated, and resuspended in ice-cold BPBS containing a 1:20 dilution of fluorescein-conjugated goat anti-His antibody (Bethyl) for […]. The cells were then centrifuged, aspirated, and stored as pellets on ice until analysis by flow cytometry using a BD FACS Caliber instrument Becton Dickinson. Binding data was analyzed with FlowJo (Treestar, Inc.) and data was fit to sigmoidal plots using Kaleidagraph (Synergy Software) to calculate equilibrium dissociation constants. Experiments were performed at least 3 times and data are presented as average values with standard deviations.
To determine the integrin binding affinities and specificities of the engineered AgRP peptides, direct binding assays were performed using K562 leukemia cells that have been transfected to stably express different integrin receptors See J. Cell Biol. 127(4) (1994). Cells were incubated in the presence of varying concentrations of AgRP peptides at 4° C., to minimize receptor internalization, followed by staining with a fluorescein-conjugated anti-hexahistidine antibody and analysis by flow cytometry. Equilibrium dissociation constants (KD values) were determined by plotting AgRP peptide concentration (log scale) versus normalized mean fluorescence intensity, then fitting the data to a sigmoidal curve.

[2] = tested on: human platelets; details: ADP-activated human platelets; comparison with eptifibatide
Protocol: Human platelets isolated by pheresis were obtained from the Stanford Blood Center and stored in serum with 7% acid/citrate/dextrose (ACD) solution. Prior to use, the platelets were centrifuged, aspirated, washed once with Tyrode's buffer (140 mM NaCl, 3 mM KCl, 12 mM NaHCO3, 0.4 mM NaH2PO4, 2 mM MgCl2, 0.1% glucose, pH 7.4), and counted using a haemacytometer. Counted platelets were resuspended in fresh plasma to a final concentration of approximately 2.8×10^8 cells/mL. 180 μL of the platelet solution, or approximately 5×10^7 platelets, were added to separate wells in a 96-well microtiter plate. AgRP peptide or eptifibatide (Cell Sciences) were added to the wells at varying concentrations, after which the platelets were activated with 25 μM ADP. Absorbance at 365 nm was monitored over 1 hr using a Synergy 4 microplate reader (BioTek Instrumentation) with readings taken every 35 s, with 3 s of shaking between readings. […] Experiments were performed at least 3 times.
Next, the effects of the engineered AgRP peptides on αIIbβ3-mediated platelet aggregation were studied. Three αIIbβ3-specific peptides (2bA, 2bJ, and 2bO) and two β3-specific peptides (b3A and b3I) were tested again. […] Microtiter plates containing platelets in serum in the presence or absence of AgRP peptides were activated using ADP at a final concentration of 25 μM, and absorbance at 365 nm was monitored over 1 h.

T1 sequence (P08514 32-887 limits assumed): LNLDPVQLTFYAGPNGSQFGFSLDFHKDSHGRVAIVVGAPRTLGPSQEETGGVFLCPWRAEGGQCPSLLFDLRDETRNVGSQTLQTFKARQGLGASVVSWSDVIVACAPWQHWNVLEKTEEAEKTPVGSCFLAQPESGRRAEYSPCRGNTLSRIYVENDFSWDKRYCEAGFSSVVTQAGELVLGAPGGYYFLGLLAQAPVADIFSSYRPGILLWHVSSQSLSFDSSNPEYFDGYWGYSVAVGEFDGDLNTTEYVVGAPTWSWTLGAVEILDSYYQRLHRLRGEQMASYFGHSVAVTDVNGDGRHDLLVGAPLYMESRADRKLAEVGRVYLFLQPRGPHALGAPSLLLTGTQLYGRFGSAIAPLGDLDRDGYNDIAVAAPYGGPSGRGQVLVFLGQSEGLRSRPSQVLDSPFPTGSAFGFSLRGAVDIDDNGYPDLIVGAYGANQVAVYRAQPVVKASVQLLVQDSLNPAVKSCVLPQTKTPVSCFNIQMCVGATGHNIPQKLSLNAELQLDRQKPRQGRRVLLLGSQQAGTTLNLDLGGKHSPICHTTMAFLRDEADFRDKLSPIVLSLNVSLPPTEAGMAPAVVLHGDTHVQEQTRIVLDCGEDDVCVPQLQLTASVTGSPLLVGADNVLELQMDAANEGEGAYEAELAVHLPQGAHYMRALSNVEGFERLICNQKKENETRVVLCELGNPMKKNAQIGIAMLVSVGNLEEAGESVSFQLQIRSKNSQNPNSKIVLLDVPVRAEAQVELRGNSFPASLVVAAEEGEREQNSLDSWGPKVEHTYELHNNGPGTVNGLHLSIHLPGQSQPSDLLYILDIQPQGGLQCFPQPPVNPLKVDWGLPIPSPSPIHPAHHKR
T1 sequence (P08514 891-1039 partner limits assumed): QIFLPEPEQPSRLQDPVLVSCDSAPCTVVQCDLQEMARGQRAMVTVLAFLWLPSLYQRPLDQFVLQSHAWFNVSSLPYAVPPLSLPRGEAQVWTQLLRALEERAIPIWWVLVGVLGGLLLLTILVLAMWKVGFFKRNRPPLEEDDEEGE
T1 sequence (P05106 27-788): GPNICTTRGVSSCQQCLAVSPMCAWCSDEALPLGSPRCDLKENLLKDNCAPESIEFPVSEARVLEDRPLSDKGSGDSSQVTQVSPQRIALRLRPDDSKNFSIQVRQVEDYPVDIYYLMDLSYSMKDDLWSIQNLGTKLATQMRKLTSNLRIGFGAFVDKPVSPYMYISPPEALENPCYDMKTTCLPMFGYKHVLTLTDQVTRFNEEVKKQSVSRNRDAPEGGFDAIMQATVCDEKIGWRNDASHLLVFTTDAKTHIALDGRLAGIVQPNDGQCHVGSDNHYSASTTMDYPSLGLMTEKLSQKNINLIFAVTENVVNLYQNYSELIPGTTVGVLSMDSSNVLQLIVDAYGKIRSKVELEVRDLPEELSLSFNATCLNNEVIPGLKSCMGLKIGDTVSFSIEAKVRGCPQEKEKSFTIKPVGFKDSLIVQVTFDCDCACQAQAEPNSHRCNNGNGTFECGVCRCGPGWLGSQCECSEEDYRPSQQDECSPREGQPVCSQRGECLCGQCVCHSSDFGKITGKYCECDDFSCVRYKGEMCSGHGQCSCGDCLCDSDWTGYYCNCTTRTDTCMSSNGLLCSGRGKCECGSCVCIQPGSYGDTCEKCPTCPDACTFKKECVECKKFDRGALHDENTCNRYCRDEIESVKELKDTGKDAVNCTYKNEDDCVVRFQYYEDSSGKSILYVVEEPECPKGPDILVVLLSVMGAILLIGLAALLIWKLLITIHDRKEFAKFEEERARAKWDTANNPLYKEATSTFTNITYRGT

SMILES | integrin binding specificity on K562 cell lines [1] | inhibition of platelet aggregation (in words) [2]
CC(C)C[C@@H]1NC(=O)[C@@H]2CSSC[C@@H]3NC(=O)[C@H]([C@@H](C)O)NC(=O)[C@H](C)NC(=O)[C@H](C)NC(=O)[C@@H]4CCCN4C(=O)[C@H](CC(=O)O)NC(=O)[C@H](CSSC[C@H](NC(=O)CNC(=O)[C@H](CCCNC(=N)N)NC(=O)[C@@H]4CCCN4C(=O)[C@H](CCCCN)NC(=O)[C@H](CC(=O)O)NC(=O)[C@H](CC(=O)O)NC(=O)[C@H](CC(=O)O)NC(=O)[C@H](CC(=O)O)NC(=O)[C@H](CCCCN)NC(=O)[C@H](Cc4ccc(O)cc4)NC(=O)[C@H](CC(=O)O)NC(=O)[C@@H](NC(=O)[C@@H](N)Cc4ccc(O)cc4)C(C)C)C(=O)N[C@@H](C(C)C)C(=O)N[C@@H](CCCNC(=N)N)C(=O)N[C@@H](CC(C)C)C(=O)N[C@@H](Cc4c[nH]cn4)C(=O)N[C@@H](CCC(=O)O)C(=O)N[C@@H](CO)C(=O)N2)NC(=O)[C@H](CSSC[C@@H](C(=O)N[C@@H](CCCNC(=N)N)C(=O)N[C@H](C(=O)N[C@@H](CCCNC(=N)N)C(=O)N[C@@H](Cc2c[nH]cn2)C(=O)N[C@@H](Cc2c[nH]cn2)C(=O)N[C@@H](Cc2c[nH]cn2)C(=O)N[C@@H](Cc2c[nH]cn2)C(=O)N[C@@H](Cc2c[nH]cn2)C(=O)N[C@@H](Cc2c[nH]cn2)C(=O)O)[C@@H](C)O)NC(=O)[C@H](Cc2ccc(O)cc2)NC(=O)[C@@H]2CSSC[C@H](NC(=O)[C@H](Cc4ccc(O)cc4)NC3=O)C(=O)N[C@@H](C(C)C)C(=O)NCC(=O)N[C@@H](CCCNC(=N)N)C(=O)NCC(=O)N[C@@H](CC(=O)O)C(=O)N[C@@H](C(C)C)C(=O)N[C@@H](CCCNC(=N)N)C(=O)N[C@@H](CCCNC(=N)N)C(=O)N[C@@H](CCCCN)C(=O)N2)NC(=O)[C@@H]2CCCN2C(=O)[C@H](C(C)C)NC(=O)[C@H](CCC(N)=O)NC(=O)[C@H](CCC(N)=O)NC(=O)CNC1=O [b3A] | bound both K562-αIIbβ3 and K562-αvβ3 cells | slightly more effective
CC(C)C[C@@H]1NC(=O)[C@@H]2CSSC[C@@H]3NC(=O)[C@H]([C@@H](C)O)NC(=O)[C@H](C)NC(=O)[C@H](C)NC(=O)[C@@H]4CCCN4C(=O)[C@H](CC(=O)O)NC(=O)[C@H](CSSC[C@H](NC(=O)CNC(=O)[C@H](CCCNC(=N)N)NC(=O)[C@@H]4CCCN4C(=O)[C@H](CCCCN)NC(=O)[C@H](CC(=O)O)NC(=O)[C@H](CC(=O)O)NC(=O)[C@H](CC(=O)O)NC(=O)[C@H](CC(=O)O)NC(=O)[C@H](CCCCN)NC(=O)[C@H](Cc4ccc(O)cc4)NC(=O)[C@H](CC(=O)O)NC(=O)[C@@H](NC(=O)[C@@H](N)Cc4ccc(O)cc4)C(C)C)C(=O)N[C@@H](C(C)C)C(=O)N[C@@H](CCCNC(=N)N)C(=O)N[C@@H](CC(C)C)C(=O)N[C@@H](Cc4c[nH]cn4)C(=O)N[C@@H](CCC(=O)O)C(=O)N[C@@H](CO)C(=O)N2)NC(=O)[C@H](CSSC[C@@H](C(=O)N[C@@H](CCCNC(=N)N)C(=O)N[C@H](C(=O)N[C@@H](CCCNC(=N)N)C(=O)N[C@@H](Cc2c[nH]cn2)C(=O)N[C@@H](Cc2c[nH]cn2)C(=O)N[C@@H](Cc2c[nH]cn2)C(=O)N[C@@H](Cc2c[nH]cn2)C(=O)N[C@@H](Cc2c[nH]cn2)C(=O)N[C@@H](Cc2c[nH]cn2)C(=O)O)[C@@H](C)O)NC(=O)[C@H](Cc2ccc(O)cc2)NC(=O)[C@@H]2CSSC[C@H](NC(=O)[C@H](Cc4ccc(O)cc4)NC3=O)C(=O)N[C@@H](CC(N)=O)C(=O)N[C@@H](CCCCN)C(=O)N[C@@H](CCCNC(=N)N)C(=O)NCC(=O)N[C@@H](CC(=O)O)C(=O)N[C@@H](Cc3c[nH]c4ccccc34)C(=O)N[C@@H](CCCNC(=N)N)C(=O)N[C@@H](CO)C(=O)N[C@@H](CCCCN)C(=O)N2)NC(=O)[C@@H]2CCCN2C(=O)[C@H](C(C)C)NC(=O)[C@H](CCC(N)=O)NC(=O)[C@H](CCC(N)=O)NC(=O)CNC1=O [Clone 2bJ] | bound K562-αIIbβ3 cells only | 
CC(C)C[C@@H]1NC(=O)[C@@H]2CSSC[C@@H]3NC(=O)[C@H]([C@@H](C)O)NC(=O)[C@H](C)NC(=O)[C@H](C)NC(=O)[C@@H]4CCCN4C(=O)[C@H](CC(=O)O)NC(=O)[C@H](CSSC[C@H](NC(=O)CNC(=O)[C@H](CCCNC(=N)N)NC(=O)[C@@H]4CCCN4C(=O)[C@H](CCCCN)NC(=O)[C@H](CC(=O)O)NC(=O)[C@H](CC(=O)O)NC(=O)[C@H](CC(=O)O)NC(=O)[C@H](CC(=O)O)NC(=O)[C@H](CCCCN)NC(=O)[C@H](Cc4ccc(O)cc4)NC(=O)[C@H](CC(=O)O)NC(=O)[C@@H](NC(=O)[C@@H](N)Cc4ccc(O)cc4)C(C)C)C(=O)N[C@@H](C(C)C)C(=O)N[C@@H](CCCNC(=N)N)C(=O)N[C@@H](CC(C)C)C(=O)N[C@@H](Cc4c[nH]cn4)C(=O)N[C@@H](CCC(=O)O)C(=O)N[C@@H](CO)C(=O)N2)NC(=O)[C@H](CSSC[C@@H](C(=O)N[C@@H](CCCNC(=N)N)C(=O)N[C@H](C(=O)N[C@@H](CCCNC(=N)N)C(=O)N[C@@H](Cc2c[nH]cn2)C(=O)N[C@@H](Cc2c[nH]cn2)C(=O)N[C@@H](Cc2c[nH]cn2)C(=O)N[C@@H](Cc2c[nH]cn2)C(=O)N[C@@H](Cc2c[nH]cn2)C(=O)N[C@@H](Cc2c[nH]cn2)C(=O)O)[C@@H](C)O)NC(=O)[C@H](Cc2ccc(O)cc2)NC(=O)[C@@H]2CSSC[C@H](NC(=O)[C@H](Cc4ccc(O)cc4)NC3=O)C(=O)N[C@@H](CCCCN)C(=O)N[C@@H](CCCCN)C(=O)N[C@@H](CCCNC(=N)N)C(=O)NCC(=O)N[C@@H](CC(=O)O)C(=O)N[C@@H](Cc3c[nH]c4ccccc34)C(=O)N[C@@H](CCCCN)C(=O)N[C@@H](CCC(=O)O)C(=O)N[C@@H](CCCNC(=N)N)C(=O)N2)NC(=O)[C@@H]2CCCN2C(=O)[C@H](C(C)C)NC(=O)[C@H](CCC(N)=O)NC(=O)[C@H](CCC(N)=O)NC(=O)CNC1=O [Clone 2bO] | bound K562-αIIbβ3 cells only | 
CC(C)C[C@@H]1NC(=O)[C@@H]2CSSC[C@@H]3NC(=O)[C@H]([C@@H](C)O)NC(=O)[C@H](C)NC(=O)[C@H](C)NC(=O)[C@@H]4CCCN4C(=O)[C@H](CC(=O)O)NC(=O)[C@H](CSSC[C@H](NC(=O)CNC(=O)[C@H](CCCNC(=N)N)NC(=O)[C@@H]4CCCN4C(=O)[C@H](CCCCN)NC(=O)[C@H](CC(=O)O)NC(=O)[C@H](CC(=O)O)NC(=O)[C@H](CC(=O)O)NC(=O)[C@H](CC(=O)O)NC(=O)[C@H](CCCCN)NC(=O)[C@H](Cc4ccc(O)cc4)NC(=O)[C@H](CC(=O)O)NC(=O)[C@@H](NC(=O)[C@@H](N)Cc4ccc(O)cc4)C(C)C)C(=O)N[C@@H](C(C)C)C(=O)N[C@@H](CCCNC(=N)N)C(=O)N[C@@H](CC(C)C)C(=O)N[C@@H](Cc4c[nH]cn4)C(=O)N[C@@H](CCC(=O)O)C(=O)N[C@@H](CO)C(=O)N2)NC(=O)[C@H](CSSC[C@@H](C(=O)N[C@@H](CCCNC(=N)N)C(=O)N[C@H](C(=O)N[C@@H](CCCNC(=N)N)C(=O)N[C@@H](Cc2c[nH]cn2)C(=O)N[C@@H](Cc2c[nH]cn2)C(=O)N[C@@H](Cc2c[nH]cn2)C(=O)N[C@@H](Cc2c[nH]cn2)C(=O)N[C@@H](Cc2c[nH]cn2)C(=O)N[C@@H](Cc2c[nH]cn2)C(=O)O)[C@@H](C)O)NC(=O)[C@H](Cc2ccc(O)cc2)NC(=O)[C@@H]2CSSC[C@H](NC(=O)[C@H](Cc4ccc(O)cc4)NC3=O)C(=O)N[C@@H](CC(C)C)C(=O)N[C@@H](CCCCN)C(=O)N[C@@H](CCCNC(=N)N)C(=O)NCC(=O)N[C@@H](CC(=O)O)C(=O)N[C@@H](Cc3c[nH]c4ccccc34)C(=O)N[C@@H](CCCCN)C(=O)NCC(=O)N[C@@H](CCCCN)C(=O)N2)NC(=O)[C@@H]2CCCN2C(=O)[C@H](C(C)C)NC(=O)[C@H](CCC(N)=O)NC(=O)[C@H](CCC(N)=O)NC(=O)CNC1=O [Clone 2bA] | bound K562-αIIbβ3 cells only | 
